Laboratory results from the NIST ThermoML archive (doi:10.1021/je800046k).
± gives the expanded uncertainty stated by the source.

Assay: xn = mol fraction of the nth substance listed
Settings: for surface tension liquid-gas: Pendant drop shape; for mass density: 101 kPa, Liquid

Cc1ccc(C)c(C)c1 [1,2,4-trimethylbenzene] + CC(=O)OC(C)C
Settings | mass density [kg/m3] | surface tension liquid-gas [mN/m]
298.15 K, x2 = 0 | 871.71 ± 0.54 | 29.3 ± 0.33
298.15 K, x2 = 0.0492 | 871.44 ± 0.53 | 28.8 ± 0.32
298.15 K, x2 = 0.101 | 871.17 ± 0.53 | 28.25 ± 0.31
298.15 K, x2 = 0.1507 | 870.9 ± 0.52 | 27.69 ± 0.31
298.15 K, x2 = 0.1995 | 870.64 ± 0.51 | 27.13 ± 0.3
298.15 K, x2 = 0.251 | 870.36 ± 0.5 | 26.6 ± 0.3
298.15 K, x2 = 0.3006 | 870.1 ± 0.5 | 26.09 ± 0.29
298.15 K, x2 = 0.3513 | 869.83 ± 0.49 | 25.6 ± 0.29
298.15 K, x2 = 0.4008 | 869.56 ± 0.48 | 25.15 ± 0.28
298.15 K, x2 = 0.45 | 869.3 ± 0.48 | 24.75 ± 0.28
298.15 K, x2 = 0.4998 | 869.03 ± 0.47 | 24.34 ± 0.27
298.15 K, x2 = 0.5498 | 868.76 ± 0.47 | 23.99 ± 0.27
298.15 K, x2 = 0.6007 | 868.49 ± 0.46 | 23.64 ± 0.27
298.15 K, x2 = 0.6492 | 868.23 ± 0.46 | 23.33 ± 0.26
298.15 K, x2 = 0.7004 | 867.95 ± 0.45 | 23.05 ± 0.26
298.15 K, x2 = 0.7501 | 867.68 ± 0.45 | 22.78 ± 0.26
298.15 K, x2 = 0.7968 | 867.42 ± 0.45 | 22.56 ± 0.25
298.15 K, x2 = 0.8495 | 867.12 ± 0.44 | 22.34 ± 0.25
298.15 K, x2 = 0.8995 | 866.84 ± 0.44 | 22.15 ± 0.25
298.15 K, x2 = 0.9492 | 866.55 ± 0.44 | 21.99 ± 0.25
308.15 K, x2 = 0 | 863.68 ± 0.56 | 28.24 ± 0.32
308.15 K, x2 = 0.0488 | 863.27 ± 0.55 | 27.69 ± 0.31
308.15 K, x2 = 0.0999 | 862.84 ± 0.54 | 27.12 ± 0.3
308.15 K, x2 = 0.1499 | 862.42 ± 0.53 | 26.56 ± 0.3
308.15 K, x2 = 0.2002 | 861.99 ± 0.53 | 26 ± 0.29
308.15 K, x2 = 0.2504 | 861.56 ± 0.52 | 25.48 ± 0.29
308.15 K, x2 = 0.3001 | 861.13 ± 0.51 | 24.96 ± 0.28
308.15 K, x2 = 0.3519 | 860.67 ± 0.51 | 24.47 ± 0.28
308.15 K, x2 = 0.4 | 860.24 ± 0.5 | 24.04 ± 0.27
308.15 K, x2 = 0.45 | 859.79 ± 0.5 | 23.62 ± 0.27
308.15 K, x2 = 0.4964 | 859.37 ± 0.49 | 23.24 ± 0.26
308.15 K, x2 = 0.5495 | 858.89 ± 0.49 | 22.86 ± 0.26
308.15 K, x2 = 0.6008 | 858.42 ± 0.48 | 22.51 ± 0.26
308.15 K, x2 = 0.6499 | 857.96 ± 0.48 | 22.21 ± 0.25
308.15 K, x2 = 0.7004 | 857.49 ± 0.48 | 21.88 ± 0.25
308.15 K, x2 = 0.7494 | 857.03 ± 0.47 | 21.67 ± 0.25
308.15 K, x2 = 0.7986 | 856.55 ± 0.47 | 21.43 ± 0.25
308.15 K, x2 = 0.85 | 856.05 ± 0.47 | 21.2 ± 0.24
308.15 K, x2 = 0.8997 | 855.56 ± 0.46 | 21.05 ± 0.24
308.15 K, x2 = 0.9498 | 855.05 ± 0.46 | 20.89 ± 0.24
313.15 K, x2 = 0 | 859.58 ± 0.56 | 27.71 ± 0.31
313.15 K, x2 = 0.0494 | 859.1 ± 0.56 | 27.14 ± 0.31
313.15 K, x2 = 0.0983 | 858.61 ± 0.55 | 26.56 ± 0.3
313.15 K, x2 = 0.1504 | 858.09 ± 0.54 | 26 ± 0.29
313.15 K, x2 = 0.1999 | 857.59 ± 0.53 | 25.44 ± 0.29
313.15 K, x2 = 0.2506 | 857.07 ± 0.53 | 24.93 ± 0.28
313.15 K, x2 = 0.3004 | 856.55 ± 0.52 | 24.41 ± 0.28
313.15 K, x2 = 0.3508 | 856.02 ± 0.52 | 23.92 ± 0.27
313.15 K, x2 = 0.3995 | 855.5 ± 0.51 | 23.51 ± 0.27
313.15 K, x2 = 0.4493 | 854.97 ± 0.51 | 23.08 ± 0.26
313.15 K, x2 = 0.4992 | 854.43 ± 0.5 | 22.65 ± 0.26
313.15 K, x2 = 0.5492 | 853.88 ± 0.5 | 22.29 ± 0.26
313.15 K, x2 = 0.6 | 853.32 ± 0.49 | 21.94 ± 0.25
313.15 K, x2 = 0.6493 | 852.77 ± 0.49 | 21.65 ± 0.25
313.15 K, x2 = 0.6995 | 852.2 ± 0.49 | 21.33 ± 0.25
313.15 K, x2 = 0.7501 | 851.62 ± 0.48 | 21.09 ± 0.24
313.15 K, x2 = 0.8 | 851.04 ± 0.48 | 20.88 ± 0.24
313.15 K, x2 = 0.8504 | 850.44 ± 0.48 | 20.65 ± 0.24
313.15 K, x2 = 0.9004 | 849.84 ± 0.48 | 20.52 ± 0.24
313.15 K, x2 = 0.9478 | 849.26 ± 0.47 | 20.37 ± 0.24

CC(=O)OCC(C)C [2-methylpropyl ethanoate] + Cc1ccc(C)c(C)c1
Settings | mass density [kg/m3] | surface tension liquid-gas [mN/m]
298.15 K, x1 = 0.0494 | 871.36 ± 0.56 | 28.85 ± 0.33
298.15 K, x1 = 0.0992 | 871.02 ± 0.58 | 28.38 ± 0.32
298.15 K, x1 = 0.1493 | 870.68 ± 0.61 | 27.89 ± 0.32
298.15 K, x1 = 0.2002 | 870.35 ± 0.63 | 27.4 ± 0.32
298.15 K, x1 = 0.2498 | 870.03 ± 0.66 | 26.98 ± 0.32
298.15 K, x1 = 0.2989 | 869.71 ± 0.68 | 26.61 ± 0.32
298.15 K, x1 = 0.3495 | 869.39 ± 0.71 | 26.25 ± 0.32
298.15 K, x1 = 0.3997 | 869.08 ± 0.74 | 25.92 ± 0.32
298.15 K, x1 = 0.4505 | 868.77 ± 0.77 | 25.59 ± 0.32
298.15 K, x1 = 0.4991 | 868.48 ± 0.81 | 25.3 ± 0.33
298.15 K, x1 = 0.5504 | 868.19 ± 0.84 | 25.03 ± 0.33
298.15 K, x1 = 0.6 | 867.92 ± 0.88 | 24.78 ± 0.33
298.15 K, x1 = 0.6496 | 867.65 ± 0.91 | 24.54 ± 0.33
298.15 K, x1 = 0.7006 | 867.37 ± 0.95 | 24.32 ± 0.33
298.15 K, x1 = 0.75 | 867.13 ± 0.99 | 24.13 ± 0.33
298.15 K, x1 = 0.8002 | 866.88 ± 1 | 23.91 ± 0.34
298.15 K, x1 = 0.8499 | 866.67 ± 1.1 | 23.74 ± 0.34
298.15 K, x1 = 0.9006 | 866.45 ± 1.1 | 23.55 ± 0.34
298.15 K, x1 = 0.9477 | 866.27 ± 1.2 | 23.36 ± 0.34
298.15 K, x1 = 1 | 866.06 ± 1.2 | 23.15 ± 0.35
308.15 K, x1 = 0.0495 | 863.22 ± 0.58 | 27.75 ± 0.32
308.15 K, x1 = 0.0992 | 862.76 ± 0.6 | 27.26 ± 0.31
308.15 K, x1 = 0.149 | 862.3 ± 0.62 | 26.78 ± 0.31
308.15 K, x1 = 0.1998 | 861.84 ± 0.64 | 26.31 ± 0.31
308.15 K, x1 = 0.25 | 861.39 ± 0.67 | 25.89 ± 0.31
308.15 K, x1 = 0.2995 | 860.95 ± 0.7 | 25.52 ± 0.31
308.15 K, x1 = 0.3497 | 860.51 ± 0.72 | 25.17 ± 0.31
308.15 K, x1 = 0.4004 | 860.07 ± 0.75 | 24.83 ± 0.31
308.15 K, x1 = 0.4501 | 859.64 ± 0.78 | 24.52 ± 0.31
308.15 K, x1 = 0.4995 | 859.23 ± 0.82 | 24.21 ± 0.31
308.15 K, x1 = 0.5505 | 858.81 ± 0.85 | 23.94 ± 0.32
308.15 K, x1 = 0.5994 | 858.42 ± 0.88 | 23.69 ± 0.32
308.15 K, x1 = 0.65 | 858.02 ± 0.92 | 23.48 ± 0.32
308.15 K, x1 = 0.6987 | 857.63 ± 0.96 | 23.25 ± 0.32
308.15 K, x1 = 0.7505 | 857.25 ± 1 | 23.04 ± 0.32
308.15 K, x1 = 0.7986 | 856.89 ± 1 | 22.82 ± 0.32
308.15 K, x1 = 0.8497 | 856.54 ± 1.1 | 22.67 ± 0.33
308.15 K, x1 = 0.8999 | 856.19 ± 1.1 | 22.48 ± 0.33
308.15 K, x1 = 0.9491 | 855.87 ± 1.2 | 22.32 ± 0.33
308.15 K, x1 = 1 | 855.51 ± 1.2 | 22.16 ± 0.33
313.15 K, x1 = 0.0506 | 859.06 ± 0.58 | 27.18 ± 0.31
313.15 K, x1 = 0.1002 | 858.55 ± 0.6 | 26.67 ± 0.31
313.15 K, x1 = 0.1499 | 858.03 ± 0.63 | 26.15 ± 0.31
313.15 K, x1 = 0.2001 | 857.52 ± 0.65 | 25.7 ± 0.31
313.15 K, x1 = 0.2505 | 857 ± 0.68 | 25.28 ± 0.31
313.15 K, x1 = 0.3001 | 856.51 ± 0.7 | 24.91 ± 0.31
313.15 K, x1 = 0.3502 | 856.01 ± 0.73 | 24.59 ± 0.31
313.15 K, x1 = 0.3995 | 855.53 ± 0.76 | 24.26 ± 0.31
313.15 K, x1 = 0.4501 | 855.03 ± 0.79 | 23.95 ± 0.31
313.15 K, x1 = 0.5001 | 854.56 ± 0.82 | 23.62 ± 0.31
313.15 K, x1 = 0.5503 | 854.08 ± 0.86 | 23.36 ± 0.31
313.15 K, x1 = 0.6007 | 853.61 ± 0.89 | 23.08 ± 0.31
313.15 K, x1 = 0.6492 | 853.16 ± 0.93 | 22.9 ± 0.31
313.15 K, x1 = 0.6997 | 852.71 ± 0.96 | 22.65 ± 0.31
313.15 K, x1 = 0.75 | 852.27 ± 1 | 22.46 ± 0.32
313.15 K, x1 = 0.801 | 851.82 ± 1 | 22.2 ± 0.32
313.15 K, x1 = 0.848 | 851.43 ± 1.1 | 22.09 ± 0.32
313.15 K, x1 = 0.8998 | 851.01 ± 1.1 | 21.89 ± 0.32
313.15 K, x1 = 0.9498 | 850.6 ± 1.2 | 21.77 ± 0.32
313.15 K, x1 = 1 | 850.16 ± 1.2 | 21.64 ± 0.33
